Where a name gives a salt, the structure may show the parent alone.

For orientation: IC50 means the point on the concentration scale where inhibition reaches its midpoint.

This assay concerns the target T1, neutral endopeptidase (Rattus norvegicus, UniProt P07861).
T1 sequence (P07861 1-750): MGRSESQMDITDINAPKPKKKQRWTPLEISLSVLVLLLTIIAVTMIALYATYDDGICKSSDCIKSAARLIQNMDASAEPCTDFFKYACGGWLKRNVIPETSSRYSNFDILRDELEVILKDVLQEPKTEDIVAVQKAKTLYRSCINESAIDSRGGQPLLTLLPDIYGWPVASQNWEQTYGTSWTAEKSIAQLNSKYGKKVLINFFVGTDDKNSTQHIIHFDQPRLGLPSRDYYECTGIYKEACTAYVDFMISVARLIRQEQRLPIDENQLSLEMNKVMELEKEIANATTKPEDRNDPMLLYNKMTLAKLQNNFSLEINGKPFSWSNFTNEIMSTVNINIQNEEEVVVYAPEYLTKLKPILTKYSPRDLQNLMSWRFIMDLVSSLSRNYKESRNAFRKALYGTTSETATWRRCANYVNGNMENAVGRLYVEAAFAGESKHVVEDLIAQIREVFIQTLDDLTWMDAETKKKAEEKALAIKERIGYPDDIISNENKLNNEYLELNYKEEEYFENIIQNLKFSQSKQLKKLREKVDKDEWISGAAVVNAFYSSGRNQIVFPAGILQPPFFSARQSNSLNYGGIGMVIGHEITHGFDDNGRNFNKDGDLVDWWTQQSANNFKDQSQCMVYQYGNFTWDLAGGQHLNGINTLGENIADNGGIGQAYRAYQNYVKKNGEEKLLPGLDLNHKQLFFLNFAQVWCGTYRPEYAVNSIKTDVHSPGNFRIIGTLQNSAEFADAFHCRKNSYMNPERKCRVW
Briefly: biochemical. Particulars: enzyme purified from rat kidney; Dns-Gly-Phe-Arg 0.5 mM; pH 7.5; 37°, 30 minutes; inhibitor preincubated 10 minutes. The protocol: The in vitro neutral endopeptidase activity is determined using a fluorometric assay procedure. The assay is based upon the cleavage of the fluorescent dansylated tripeptide Dns-Gly-Phe-Arg to form Dns-Gly. The latter is extracted from the acidified mixture by ethyl acetate and is strongly fluorescent.
The incubation mixture employed for the assay contains the substance Dns-Gly-Phe-Arg (0.5 mM), tris(hydroxymethyl)aminomethane -HCl buffer (pH 7.5, 50 mM), an enzyme preparation in 0.05% Triton X-100, and water or inhibitor diluted to a final volume of 0.25 ml. The enzyme preparation is purified from rat kidney according to the procedure described by Almenoff et al. in Biochemistry Vol. 22, p. 590-599 (1983). The inhibitor is preincubated for 10 minutes with the enzyme preparation and buffer before the reaction is initiated by the addition of the substrate. Incubation is carried out at 37° for 30 minutes and the reaction is stopped by the addition of 0.25 ml. 1N HCl and extraction of the Dns-Gly product into 1.5 ml. of ethyl acetate. Relative fluorescent intensity (RFI) of the ethyl acetate extract is measured using a Ferrand Spectofluorometer at excitation and emission wavelengths of 342 and 508 nm., respectively, corrected for the RFI of a zero-time control, and compared with assays lacking inhibitor.
Runs are made at different concentrations of test compound and by use of a mathematical model the IC50 is determined. The IC50 is the concentration of test compound that inhibits activity of the enzyme by 50%.
The compound `CC(C)[C@H](NC(=O)CS)C(=O)N[C@@H](Cc1c[nH]c2ccccc12)C(=O)O` [lithium salt] had an IC50 of 680 nM. The same measure for `CC(C)CC(CS)C(=O)NCC(=O)N[C@@H](CCC(N)=O)C(=O)O` (mixture of isomers) [Example 59, (±)-N^2-[N-[2-(Mercaptomethyl)-4-methyl-1-oxopentyl]-glycyl]-L-glutamine, ammonium salt (1:1)]: 330 nM; for `CC(C)C[C@H](NC(=O)[C@H](Cc1ccccc1)NC(=O)[C@@H]1CCCC[C@H]1CS)C(=O)O` (mixture of isomers) [Example 67, (trans)-N-[N-[[2-(Mercaptomethyl)cyclohexyl]carbonyl]-L-phenylalanyl]-L-leucine]: 970 nM; for `CC(CS)C(=O)N[C@H](C(=O)O)C(C)C` (mixture of isomers) [Example 20, (±)-N-(3-Mercapto-2-methyl-1-oxopropyl)-L-valine]: 21 nM. To `O=C(O)CCCCCCNC(=O)[C@H](Cc1ccccc1)N[C@@H](Cc1ccccc1)C(=O)O` [Example 79, 7-[[N-[(S)-l-Carboxy-2-phenylethyl]-L-phenylalanyl]amino]heptanoic acid] belongs 940 nM; to `CC(C)CC(CS)C(=O)NCCC(=O)N[C@@H](CCCNC(=N)N)C(=O)O` (mixture of isomers) [Example 58, (±)-N-[N-[2-(Mercaptomethyl)-4-methyl-1-oxopentyl]-β-alanyl]-L-arginine], 95 nM; to `CC(CS)C(=O)N[C@@H](C)C(=O)O` (mixture of isomers) [Example 25, (±)-N-(3-Mercapto-2-methyl-1-oxopropyl)-L-alanine, N-cyclohexylcyclohexanamine salt (1:1)], 120 nM. The same measure for `CC(C)CC(CS)C(=O)N[C@@H](C)C(=O)N[C@@H](CCCN=C(N)N)C(=O)O` (single isomer, unassigned; isomer b) [Example 57, N-[N-[2-(Mercaptomethlyl)-4-methyl-1-oxopentyl]-L-alanyl]-L-arginine (isomer B)]: 28 nM.

On to `O=C(O)CCCCC(=O)NC(CS)Cc1ccccc1` (stereo not shown) [Example 70, 6-[[1-(Mercaptomethyl)-2-phenylethyl]amino]-6-oxohexanoic acid], for which inhibition was half-maximal at 3.1 nM (IC50). Consider `CC(CS)C(=O)N[C@@H](Cc1ccc(O)c(O)c1)C(=O)O` (mixture of isomers) [Example 7, 3-Hydroxy-N-(DL-3-mercapto-2-methyl-1-oxopropyl)-L-tyrosine], for which the IC50 is 54 nM.

For `O=C(N[C@@H](Cc1ccc(O)cc1)C(=O)O)C(CS)Cc1ccccc1` (mixture of isomers) [Example 29, (±)-N-[2-(Mercaptomethyl)-1-oxo-3-phenylpropyl]-L -tyrosine], 17 nM corresponded to half-maximal inhibition (IC50).

For the compound `CC(C)C[C@H](NC(=O)[C@H](C)CS)C(=O)O` [Example 40, (S),N-(3-Mercapto-2-methyl-1-oxopropyl)-L-leucine], the IC50 was found to be 190 nM. As for `CC(C)C[C@H](NC(=O)[C@H](Cc1ccccc1)OP(=O)(O)CCc1ccccc1)C(=O)O` [Example 77, N-[(S)-2-[[Hydroxy(2-phenylethy1)phosphinyl]oxy]-1-oxo-3-phenylpropyl]-L-leucine, dilithium salt], inhibition was half-maximal at 2200 nM (IC50). The compound `O=C(O)CCCCCCCNC(=O)C(CS)Cc1ccccc1` (stereo not shown) [Example 51, 8-[[2-(Mercaptomethyl)-1-oxo-3-phenylpropyl]amino]-octanoic acid] had an IC50 of 20 nM.

With `O=C(O)CCNC(=O)[C@H](Cc1ccccc1)N[C@@H](Cc1ccccc1)C(=O)O` [Example 78, 3-[[N-[(S)-1-Carboxy-2-phenylethyl]-L-phenylalanyl]-amino]propanoic acid], the 50% inhibitory concentration (IC50) is 13 nM. Regarding `CC(C)CC(CS)C(=O)NCC(=O)N[C@@H](CCCN=C(N)N)C(=O)O` (mixture of isomers) [Example 55, (±)-N-[N,[2-(Mercaptomethyl)-4-methyl-1-oxopentyl]-glycyl]-L-arginine], the IC50 amounted to 530 nM. The same measure for `O=C(O)CCNC(=O)C(CS)Cc1ccccc1` (racemic) [Example 45, (±)-3-[[2-(Mercaptomethyl)-1-oxo-3-phenylpropyl]amino]propanoic acid]: 8.9 nM. The same measure for `CC(C)CC(CS)C(=O)N[C@@H](CCCNC(=N)N)C(=O)O` (mixture of isomers) [Example 11, (±)-N^2-[2-(Mercaptomethyl)-4-methyl-1-oxopentyl]-L-arginine]: 170 nM; for `O=C(N[C@@H](Cc1c[nH]c2ccccc12)C(=O)O)C(CS)Cc1ccccc1` (mixture of isomers) [Example 28, (±)-N-[2-(Mercaptomethyl)-1-oxo-3-phenylpropyl]-L -tryptophan, 1,1-dimethylethanamine salt (1:1)]: 7.8 nM. Consider `CC(C)C[C@H](NC(=O)CS)C(=O)NCC(=O)O` [Example 63, N-[N-(Mercaptoacetyl)-L-leucyl]glycine], for which the half-maximal inhibitory concentration (IC50) is 310 nM. The same measure for `O=C(O)CCCCCCC(=O)NC(CS)Cc1ccccc1` (stereo not shown) [Example 71, 8-[[1-(MercaDtomethyl)-2-phenylethyl]amino]-8-oxooctanoic acid]: 14 nM. The same measure for `CC(C)C[C@@H](NC(=O)[C@@H](Cc1ccccc1)NC(=O)[C@@H]1CCCC[C@H]1C(=O)O)C(=O)O` (mixture of isomers) [Example 81, (trans)(R,R)-N-[N-[(2-Carboxycyclohexyl)carbonyl]-L-phenylalanyl]-L-leucine]: 1200 nM; for `CC[C@H](C)[C@H](NC(=O)[C@H](C)CS)C(=O)O` [Example 43, (S)-N-(3-Mercapto-2-methyl-1-oxopropyl)-L-isoleucine]: 64 nM.

`CC(C)C[C@H](NC(=O)[C@H](Cc1ccccc1)N[C@@H](Cc1ccccc1)C(=O)O)C(=O)O` [Example 80, N-[N-[(S)-l-Carboxy-2-phenylethyl]-L-phenylalanyl]-L-leucine] yielded an IC50 of 330 nM.

`O=C(O)C[C@H](Cc1ccccc1)NC(=O)C(CS)Cc1ccccc1` (single isomer, unassigned; isomer b) [Example 48] gave an IC50 of 52 nM.

`C[C@H](CS)C(=O)N[C@H](C(=O)O)[C@@H](C)O` [Example 41, (S)-N-(3-Mercapto-2-methyl-1-oxopropyl)-L-threonine]: the half-inhibitory concentration (IC50) amounted to 730 nM. Compound `N=C(N)NCCC[C@H](NC(=O)C(CS)Cc1ccccc1)C(=O)O` (mixture of isomers) [Example 4, N-[DL-2-(Mercaptomethyl)-1-oxo-3,-phenylpropyl]-L-arginine] yielded an IC50 of 290 nM.

In turn, `O=C(N[C@@H](Cc1ccccc1)C(=O)O)C(CS)Cc1ccccc1` (single isomer, unassigned; isomer b) [Example 32, N-[2-(Mercaptomethyl-1-oxo-3-phenylpropyl]-L-phenylalanine (isomer B)] came in with a half-inhibitory concentration (IC50) of 8.9 nM. On to `O=C(O)CCNC(=O)C(Cc1ccccc1)CP(=O)(O)O` (stereo not shown) [Example 75, 3-[[1-Oxo-2-(phenylmethyl)-3-phosphonopropyl]amino]propanoic acid], for which half-maximal inhibition (IC50) was put at 40 nM.

On to `CCCC(C)C(CS)C(=O)NCC(=O)O` (racemic) [Example 10, (±)-N-[2-(Mercaptomethyl)-3-methyl-1-oxohexyl]-glycine, N-cyclohexylcyclohexanamine salt (1:1)], for which the 50% inhibitory concentration (IC50) is 510 nM. `O=C(O)C[C@H](Cc1ccccc1)NC(=O)C(CS)Cc1ccccc1` (single isomer, unassigned; isomer a) [Example 47]: the midpoint of inhibition, the IC50, lay at 18 nM.

(Values after patent US5496805A, “Inhibitors of neutral endopeptidase” (priority 1990, dated 1996).)
